Columns and labels:
[1] = Percent bioavailability was determined in dog by iv/po dose at 5 mg/kg; type: ADME, organism-based, Canis lupus familiaris; conditions: in vivo
[2] = target: T1, Platelet-derived growth factor receptor beta (Homo sapiens, UniProt P09619); assay: Inhibition of Platelet derived growth factor receptor beta autophosphorylation in CHO cells; type: cell-based
[3] = Inhibition of PDGFR-beta/c-Kit chimeric receptor autophosphorylation in CHO cells; type: cell-based
[4] = Plasma half life was determined in monkey by iv/po dose at 10 mg/kg; type: ADME, organism-based; parameters: dose 10 mg/kg; conditions: cercopithecidae
[5] = Area under curve was determined in rat by peroral dose at 10 mg/kg; type: ADME, organism-based; parameters: dose 10 mg/kg, route oral; conditions: in vivo, po
[6] = Maximum concentration was determined in monkey by iv/po dose at 10 mg/kg; type: ADME, organism-based; parameters: dose 10 mg/kg; conditions: cercopithecidae, in vivo
[7] = target: T1, Platelet-derived growth factor receptor beta; assay: In vitro inhibition of Platelet derived growth factor receptor beta autophosphorylation in MG-63 cells without plasma; type: cell-based
[8] = Area under curve was determined in dog by peroral dose at 5 mg/kg; type: ADME, organism-based, Canis lupus familiaris; parameters: dose 5 mg/kg, route oral; conditions: in vivo, po
[9] = Percent bioavailability was determined in monkey by iv/po dose at 10 mg/kg; type: ADME, organism-based; conditions: cercopithecidae, in vivo
[10] = Plasma half life was determined in rat by iv/po dose at 10 mg/kg; type: ADME, organism-based; parameters: dose 10 mg/kg
[11] = Percent bioavailability was determined in rat by iv/po dose at 10 mg/kg; type: ADME, organism-based; conditions: in vivo
[12] = Plasma half life was determined in dog by iv/po dose at 5 mg/kg; type: ADME, organism-based, Canis lupus familiaris; parameters: dose 5 mg/kg
[13] = Inhibition of PDGFR-beta/Flt-3 chimeric receptor autophosphorylation in CHO cells; type: cell-based
[14] = Maximum concentration was determined in rat by iv/po dose at 10 mg/kg; type: ADME, organism-based; parameters: dose 10 mg/kg; conditions: in vivo
[15] = target: T1, Platelet-derived growth factor receptor beta; assay: In vitro inhibition of Platelet derived growth factor receptor beta autophosphorylation in MG-63 cells with 45% human plasma; type: cell-based
[16] = Maximum concentration was determined in dog by iv/po dose at 5 mg/kg; type: ADME, organism-based, Canis lupus familiaris; parameters: dose 5 mg/kg; conditions: in vivo
[17] = Bioavailability in rat (dose 30 mg/kg i.v./p.o.); type: ADME, organism-based; conditions: in vivo, po
[18] = Plasma half life was determined in rat by iv/po dose at 30 mg/kg; type: ADME, organism-based; parameters: dose 30 mg/kg
[19] = Maximum concentration was determined in rat by iv/po dose at 30 mg/kg; type: ADME, organism-based; parameters: dose 30 mg/kg; conditions: in vivo
[20] = Area under curve was determined in rat by peroral dose at 30 mg/kg; type: ADME, organism-based; parameters: dose 30 mg/kg, route oral; conditions: in vivo, po
[21] = Plasma half life was determined in dog by iv/po dose at 8.69 mg/kg; type: ADME, organism-based, Canis lupus familiaris; parameters: dose 8.69 mg/kg
[22] = Maximum concentration was determined in dog by iv/po dose at 8.69 mg/kg; type: ADME, organism-based, Canis lupus familiaris; parameters: dose 8.69 mg/kg; conditions: in vivo
[23] = Percent bioavailability was determined in dog by iv/po dose at 8.69 mg/kg; type: ADME, organism-based, Canis lupus familiaris; conditions: in vivo

T1 sequence (P09619 whole entry): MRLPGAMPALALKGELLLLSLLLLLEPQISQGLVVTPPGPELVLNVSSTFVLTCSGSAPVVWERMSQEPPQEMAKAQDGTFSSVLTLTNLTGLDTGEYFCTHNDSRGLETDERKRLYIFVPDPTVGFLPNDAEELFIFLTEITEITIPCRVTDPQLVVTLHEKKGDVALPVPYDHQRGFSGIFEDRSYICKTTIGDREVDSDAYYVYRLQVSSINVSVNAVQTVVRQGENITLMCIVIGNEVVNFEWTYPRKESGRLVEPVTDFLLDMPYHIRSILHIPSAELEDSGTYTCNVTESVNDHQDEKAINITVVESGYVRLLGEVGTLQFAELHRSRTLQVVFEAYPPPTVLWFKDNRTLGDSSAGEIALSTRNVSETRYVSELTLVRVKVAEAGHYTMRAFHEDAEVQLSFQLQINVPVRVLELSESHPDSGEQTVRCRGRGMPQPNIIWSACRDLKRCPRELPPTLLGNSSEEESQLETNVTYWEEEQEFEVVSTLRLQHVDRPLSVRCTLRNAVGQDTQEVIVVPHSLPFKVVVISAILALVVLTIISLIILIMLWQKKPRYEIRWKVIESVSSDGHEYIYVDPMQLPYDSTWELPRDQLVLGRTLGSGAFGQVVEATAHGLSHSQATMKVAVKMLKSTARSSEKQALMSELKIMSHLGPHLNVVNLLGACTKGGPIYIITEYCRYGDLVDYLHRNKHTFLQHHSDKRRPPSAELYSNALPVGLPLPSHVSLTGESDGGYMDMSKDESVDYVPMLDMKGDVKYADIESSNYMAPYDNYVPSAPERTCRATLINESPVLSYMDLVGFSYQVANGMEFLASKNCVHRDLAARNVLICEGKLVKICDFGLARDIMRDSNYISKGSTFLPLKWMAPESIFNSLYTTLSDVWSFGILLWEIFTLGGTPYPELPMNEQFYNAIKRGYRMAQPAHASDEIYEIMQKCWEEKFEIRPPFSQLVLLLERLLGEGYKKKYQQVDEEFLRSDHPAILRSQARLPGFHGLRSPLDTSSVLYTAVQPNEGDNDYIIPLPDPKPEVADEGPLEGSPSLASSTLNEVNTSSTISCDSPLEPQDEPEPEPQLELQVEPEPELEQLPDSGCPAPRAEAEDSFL

COc1cc2c(N3CCN(/C(S)=N\c4ccc(-c5ccccn5)cc4)CC3)ncnc2cc1OCCN1CCCCC1
bioavailability [1]: 30.2% | IC50 [2]: 70 nM | IC50 [3]: 100 nM | half-life [4]: 8.46 h | AUC [5]: 26.9 µg/h/mL | Cmax [6]: 143 ng/mL | IC50 [7]: 180 nM | AUC [8]: 333 ng·h/mL | bioavailability [9]: 68% | half-life [10]: 17.4 h | bioavailability [11]: 8.82% | half-life [12]: 7.58 h | IC50 [13]: 3190 nM | Cmax [14]: 34.1 ng/mL | IC50 [15]: 150 nM | Cmax [16]: 38.9 ng/mL

COc1cc2c(N3CCN(C(=S)NCc4cnc(C)cn4)CC3)ncnc2cc1OCCN1CCCCC1
bioavailability [17]: 13.7% | half-life [18]: 14.1 h | IC50 [2]: 250 nM | IC50 [3]: 890 nM | Cmax [19]: 239 ng/mL | half-life [4]: 20.9 h | Cmax [6]: 235 ng/mL | IC50 [7]: 50 nM | AUC [20]: 32.2 µg/h/mL | half-life [21]: 10.8 h | Cmax [22]: 297 ng/mL | IC50 [13]: > 30000 nM | bioavailability [23]: 38.8% | IC50 [15]: 60 nM
